From US5041567A, “Antibacterial monic acid derivatives” (Beecham Group plc, priority 1982, dated 1991)
≈ marks a conversion by molar mass, not a printed value. Read-outs that look alike come from different tables or passages of the source.

How the values were obtained:
[1] = system: Haemophilus influenzae Wy21; test: MIC against human bacteria in vitro; assay type: cell-based
Sarcina lutea 8340 = test: MIC against human bacteria in vitro; assay type: cell-based; conditions: Micrococcus luteus; Sarcina lutea 8340; 5% chocolated horse blood agar, 18 hours; read-out: MIC
Past. multocida PA2 = test: MIC against veterinary bacteria in vitro; conditions: Pasteurella multocida, PA2, 18 h
Experimental: (§1) The activity of the compounds of the Examples against various veterinarily important bacteria, was assayed in vitro using two-fold serial dilutions in Diagnostic Sensitivity Test Agar inoculated with 10^4 organisms.

M. suipneumoniae JF 435 = test: MIC against mycoplasma in vitro; assay type: cell-based; conditions: Mesomycoplasma hyopneumoniae, JF435, 144 h; M. suipneumoniae JF 435; 6 days, 37° C.; read-out: MIC
[2] = system: M. suipneumoniae J2206/183^b; test: MIC against mycoplasma in vitro; assay type: cell-based; conditions: Mesomycoplasma hyopneumoniae, 144 h; M. suipneumoniae J2206/183^b; 6 days, 37° C.; read-out: MIC
M. suipneumoniae HK(2) = test: MIC against mycoplasma in vitro; assay type: cell-based; conditions: Mesomycoplasma hyopneumoniae, 144 h; M. suipneumoniae HK(2); 6 days, 37° C.; read-out: MIC
[3] = system: Corynebacterium xerosis 9755; test: MIC against human bacteria in vitro; assay type: cell-based; conditions: Corynebacterium xerosis 9755; 5% chocolated horse blood agar, 18 hours; read-out: MIC
Staph. aureus Russell = test: MIC against human bacteria in vitro; assay type: cell-based; conditions: Staphylococcus aureus; Staph. aureus Russell; 5% chocolated horse blood agar, 18 hours; read-out: MIC
[4] = system: Pasteurella multocida 1633; test: MIC against human bacteria in vitro; assay type: cell-based; conditions: Pasteurella multocida 1633; 5% chocolated horse blood agar, 18 hours; read-out: MIC
Strep. agalactiae SPA1 = test: MIC against veterinary bacteria in vitro; conditions: Streptococcus agalactiae, SPA1, 18 h
Experimental: as §1

E. coli ESS = test: MIC against human bacteria in vitro; assay type: cell-based; conditions: Escherichia coli
Past. haemolytica PA5 = test: MIC against veterinary bacteria in vitro; conditions: Mannheimia haemolytica, PA5, 18 h
Experimental: as §1

[5] = system: Strep. suis (group D) SPS11; test: MIC against veterinary bacteria in vitro; conditions: Streptococcus suis, 18 h
Experimental: as §1

Staph. aureus Oxford [6] = test: MIC against human bacteria in vitro; assay type: cell-based; conditions: Staphylococcus aureus; Staph. aureus Oxford; 5% chocolated horse blood agar, 18 hours; read-out: MIC
[7] = system: Erysipelothrix rhusiopathiae NCTC 8163; test: MIC against veterinary bacteria in vitro; conditions: Erysipelothrix rhusiopathiae, NCTC8163, 18 h
Experimental: as §1

Strep. pneumoniae CN33 = test: MIC against human bacteria in vitro; assay type: cell-based; conditions: Streptococcus pneumoniae
M. suipneumoniae UCD 1 = test: MIC against mycoplasma in vitro; assay type: cell-based; conditions: Mesomycoplasma hyopneumoniae, UCD1, 144 h; M. suipneumoniae UCD 1; 6 days, 37° C.; read-out: MIC
M. hyorhinis ATCC 23234 = test: MIC against mycoplasma in vitro; assay type: cell-based; conditions: Mesomycoplasma hyorhinis, ATCC23234, 144 h
S. dublin S7 = test: MIC against veterinary bacteria in vitro; conditions: Salmonella enterica, S7, 18 h
Experimental: as §1

M. pneumoniae ATCC 15492 = test: MIC against mycoplasma in vitro; assay type: cell-based; conditions: Mycoplasmoides pneumoniae, ATCC15492, 144 h; M. pneumoniae ATCC 15492; 6 days, 37° C.; read-out: MIC
Bacillus subtilis 6633 = test: MIC against human bacteria in vitro; assay type: cell-based
Staph. aureus Oxford [8] = test: MIC against veterinary bacteria in vitro; conditions: Staphylococcus aureus, 18 h
Experimental: as §1

M. hyorhinis ATCC 25021 = test: MIC against mycoplasma in vitro; assay type: cell-based; conditions: Mesomycoplasma hyorhinis, ATCC25021, 144 h
[9] = system: Staph. aureus B4 (pen. resistant); test: MIC against veterinary bacteria in vitro; conditions: Staphylococcus aureus, 18 h
Experimental: as §1

Bord. bronchiseptica B08 = test: MIC against veterinary bacteria in vitro; conditions: Bordetella bronchiseptica, B08, 18 h
Experimental: as §1

[10] = system: M. suipneumoniae PW/C/210; test: MIC against mycoplasma in vitro; assay type: cell-based; conditions: Mesomycoplasma hyopneumoniae, 144 h; M. suipneumoniae PW/C/210; 6 days, 37° C.; read-out: MIC
[11] = system: M. suipneumoniae ATCC 25095; test: MIC against mycoplasma in vitro; assay type: cell-based; conditions: Mesomycoplasma hyopneumoniae, ATCC25095, 144 h; M. suipneumoniae ATCC 25095; 6 days, 37° C.; read-out: MIC
[12] = system: M. hyosynoviae ATCC 25591; test: MIC against mycoplasma in vitro; assay type: cell-based; conditions: 144 h; M. hyosynoviae ATCC 25591; 6 days, 37° C.; read-out: MIC
Strep. agalactiae 2788-B = test: MIC against human bacteria in vitro; assay type: cell-based; conditions: Streptococcus agalactiae; Strep. agalactiae 2788-B; 5% chocolated horse blood agar, 18 hours; read-out: MIC
M. dispar NCTC 10125 = test: MIC against mycoplasma in vitro; assay type: cell-based; conditions: 144 h
Past. multocida PA1 = test: MIC against veterinary bacteria in vitro; conditions: Pasteurella multocida, PA1, 18 h
Experimental: as §1

[13] = system: M. suipneumoniae NCTC 10110; test: MIC against mycoplasma in vitro; assay type: cell-based; conditions: Mesomycoplasma hyopneumoniae, NCTC10110, 144 h; M. suipneumoniae NCTC 10110; 6 days, 37° C.; read-out: MIC
Staph. aureus W2827 = test: MIC against human bacteria in vitro; assay type: cell-based; conditions: Staphylococcus aureus; Staph. aureus W2827; 5% chocolated horse blood agar, 18 hours; read-out: MIC
[14] = system: Corynebacterium pyogenes CY1; test: MIC against veterinary bacteria in vitro; conditions: CY1, 18 h
Experimental: as §1

M. suipneumoniae LABER = test: MIC against mycoplasma in vitro; assay type: cell-based; conditions: Mesomycoplasma hyopneumoniae, 144 h; M. suipneumoniae LABER; 6 days, 37° C.; read-out: MIC

| Compound | MIC (Sarcina lutea 8340) [µg/mL] | MIC (Past. multocida PA2) [µg/mL] | MIC (M. suipneumoniae JF 435) [µg/mL] | MIC [2] [µg/mL] | MIC (M. suipneumoniae HK(2)) [µg/mL] | MIC [3] [µg/mL] | MIC (Staph. aureus Russell) [µg/mL] | MIC [4] [µg/mL] | MIC (Past. haemolytica PA5) [µg/mL] | MIC [5] [µg/mL] | MIC (Staph. aureus Oxford [6]) [µg/mL] | MIC [7] [µg/mL] | MIC (M. suipneumoniae UCD 1) [µg/mL] | MIC (S. dublin S7) [µg/mL] | MIC (M. pneumoniae ATCC 15492) [µg/mL] | MIC (Staph. aureus Oxford [8]) [µg/mL] | MIC [9] [µg/mL] | MIC (Bord. bronchiseptica B08) [µg/mL] | MIC [10] [µg/mL] | MIC [11] [µg/mL] | also measured |
| --- | --- | --- | --- | --- | --- | --- | --- | --- | --- | --- | --- | --- | --- | --- | --- | --- | --- | --- | --- | --- | --- |
| C/C(=C\c1ncc(-c2ccc(CO)cc2)o1)C[C@@H]1OC[C@H](C[C@@H]2O[C@H]2[C@@H](C)[C@H](C)O)[C@@H](O)[C@H]1O [Example 13, 5-p-Hydroxymethylphenyl-2-(1-normon-2-yl) oxazole A] | 128 (≈ 270 µM) | 0.312 (≈ 0.659 µM) | 0.25 (≈ 0.528 µM) | 0.25 (≈ 0.528 µM) | 0.25 (≈ 0.528 µM) | 64 (≈ 135 µM) | 4 (≈ 8.45 µM) | 2 (≈ 4.22 µM) | 40 (≈ 84.5 µM) | 10 (≈ 21.1 µM) | 4 (≈ 8.45 µM) | > 80 | 0.25 (≈ 0.528 µM) | > 80 | 0.5 (≈ 1.06 µM) | 1.25 (≈ 2.64 µM) | 1.25 (≈ 2.64 µM) | > 80 | 0.1 (≈ 0.211 µM) | 0.25 (≈ 0.528 µM) | MIC ([1]; Haemophilus influenzae, WY21, 18 h): 1 µg/mL (≈ 2.11 µM); MIC (Strep. agalactiae SPA1): 10 µg/mL (≈ 21.1 µM); MIC (E. coli ESS; E. coli ESS, 5% chocolated horse blood agar, 18 hours, read-out: MIC): 2 µg/mL (≈ 4.22 µM); MIC (Strep. pneumoniae CN33; Strep. pneumoniae CN33, 5% chocolated horse blood agar, 18 hours, read-out: MIC): 4 µg/mL (≈ 8.45 µM); MIC (M. hyorhinis ATCC 23234): 0.1 µg/mL (≈ 0.211 µM); MIC (Bacillus subtilis 6633; Bacillus subtilis, 6633, 18 h): 1 µg/mL (≈ 2.11 µM); MIC (M. hyorhinis ATCC 25021): 0.1 µg/mL (≈ 0.211 µM); MIC [12]: 0.25 µg/mL (≈ 0.528 µM); MIC (Strep. agalactiae 2788-B): 2 µg/mL (≈ 4.22 µM); MIC (M. dispar NCTC 10125): 0.05 µg/mL (≈ 0.106 µM); MIC (Past. multocida PA1): 2.5 µg/mL (≈ 5.28 µM); MIC [13]: 0.25 µg/mL (≈ 0.528 µM); MIC (Staph. aureus W2827): 4 µg/mL (≈ 8.45 µM); MIC [14]: > 80 µg/mL |
| C/C(=C\c1nc(C)c(C)o1)C[C@@H]1OC[C@H](C[C@@H]2O[C@H]2[C@@H](C)[C@H](C)O)[C@@H](O)[C@H]1O [Example 39, 4,5-Dimethyl-2-(1-normon-2-yl)oxazole A] | > 100 | 40 (≈ 101 µM) | > 10 | > 10 | > 10 | > 100 | > 100 | 50 (≈ 126 µM) | 80 (≈ 202 µM) | > 80 | 100 (≈ 253 µM) | > 80 | > 10 | > 80 | > 10 | > 80 | > 80 | > 80 | > 10 | > 10 | MIC ([1]; Haemophilus influenzae Wy21, 5% chocolated horse blood agar, 18 hours, read-out: MIC): 2.5 µg/mL (≈ 6.32 µM); MIC (E. coli ESS; 18 h): > 100 µg/mL; MIC (Strep. pneumoniae CN33; CN33, 18 h): 100 µg/mL (≈ 253 µM); MIC (M. hyorhinis ATCC 23234; M. hyorhinis ATCC 23234, 6 days, 37° C., read-out: MIC): > 10 µg/mL; MIC (Bacillus subtilis 6633; Bacillus subtilis 6633, 5% chocolated horse blood agar, 18 hours, read-out: MIC): > 100 µg/mL; MIC (M. hyorhinis ATCC 25021; M. hyorhinis ATCC 25021, 6 days, 37° C., read-out: MIC): > 10 µg/mL; MIC [12]: > 10 µg/mL; MIC (Strep. agalactiae 2788-B): > 100 µg/mL; MIC (M. dispar NCTC 10125; M. dispar NCTC 10125, 6 days, 37° C., read-out: MIC): > 10 µg/mL; MIC (Past. multocida PA1): 80 µg/mL (≈ 202 µM); MIC [13]: > 10 µg/mL; MIC (M. suipneumoniae LABER): > 10 µg/mL; MIC (Staph. aureus W2827): > 100 µg/mL; MIC [14]: > 80 µg/mL |
